Where a chain is given by its changes, count along the chain named.
Tests used:
Assay type in all cases: cell-based
PAR4-S66E = biological target: T1, PAR4-S66E (Homo sapiens, UniProt Q96RI0, S66E); test: PAR4 mutant calcium flux assay, HEK293T/17 cells, S66E; conditions: 100 nM vorapaxar
T1 construct: Flag; expressed in transfected cells; host or cells: HEK293T/17 (ATCC CRL-11268)
T1 sequence (Q96RI0 18-385 S66E): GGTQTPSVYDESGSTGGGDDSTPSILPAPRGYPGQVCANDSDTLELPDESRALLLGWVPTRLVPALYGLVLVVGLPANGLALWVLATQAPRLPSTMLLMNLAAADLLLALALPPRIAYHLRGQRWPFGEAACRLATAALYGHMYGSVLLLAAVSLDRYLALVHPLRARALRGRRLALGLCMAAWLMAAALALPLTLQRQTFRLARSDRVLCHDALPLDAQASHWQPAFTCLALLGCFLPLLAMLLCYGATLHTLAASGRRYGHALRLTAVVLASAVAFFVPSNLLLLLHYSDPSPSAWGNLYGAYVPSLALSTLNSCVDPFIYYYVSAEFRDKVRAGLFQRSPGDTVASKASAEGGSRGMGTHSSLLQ
Experimental: (§1) PAR4 mutant calcium flux assays. Using Quikchange Lightning Site-Directed mutagenesis (Agilent) per manufacturing instructions, pCMV-Flag-PAR4-S66E, pCMV-Flag-PAR4-S67E, and pCMV-Flag-PAR4-R68E were generated from mutation of pCMV-Flag-PAR4 and confirmed by sequencing (University of Utah DNA Sequencing Core). Prior to transfection, HEK293T/17 cells (ATCC CRL-11268) were seeded at 4.5×10^4/mL. The following day, cells were transfected with the plasmid of interest using Lipofectamine 2000 (Invitrogen, Carlsbad, CA, USA). Twenty-four hours after transfection, media was removed and replaced with Optimem w/Glutamax (Gibco, Carlsbad, CA, USA) containing vorapaxar (100 nM) (Cayman Chemical, Ann Arbor, MI, USA) and Fura2-QBT (Molecular Devices). Following incubation for 1 hour at 37° C., plate was placed in the Flexstation 3 (Molecular Devices) where agonists, Tyrode's Buffer, cathepsin G (2.5 μM), or α-thrombin (1.5 U/mL), were injected onto cells and calcium mobilization was monitored and recorded.

washed platelets = test: Platelet aggregation of human washed platelets; conditions: for platelet aggregation, species comparison: humans: 1 U/mL human thrombin, 1 μM human CatG or 1 mM RA-11mer
Experimental: (§2) Platelet isolation, aggregation, and activation. Human washed platelets were prepared and resuspended in Tyrode's Buffer at 2×10^8/mL as described (Edelstein et al., Nat Med. 2013; 19(12):1609-1616). For human and dog platelet comparisons, platelets were prepared using a modified human platelet protocol with final concentrations of […] (Cayman Chemical, Ann Arbor, MI, USA) used during centrifugation steps. Centrifugations after Tyrode's washes was decreased to 1,250×g as described in Cremer et al., PLOS One. 2019; 14(11): e0224891. Platelet aggregation was measured under stirring conditions at 37° C. using a PAP-8E aggregometer after treatment with the following agonists: arachidonic acid (Bio/Data Corporation, Horsham, PA, USA), cathepsin G, elastase, proteinase 3 (Athens Research Group), α-thrombin (Sigma, St. Louis, MO, USA), PAR-1 peptide (SFLLRN) (GL Biochem, China). P-selectin and PAC-1 were measured as previously described (Yee et al., J Thromb Haemost. 2006; 4(9):2043-2050; Tourdot et al., Arterioscler Thromb Vasc Biol. 2014; 34(12):2644-2650).
GYPGQV-NH2 (SEQ ID NO: 5), RALLLGWVPTR-NH2 (SEQ ID NO: 1), ALLLGWVPTR-NH2 (SEQ ID NO: 2), RALLLG-NH2 (SEQ ID NO: 4). Peptides were synthesized by BIOMATIK (Wilmington, DE, USA) at similar purities. All peptides were suspended in 50% DMSO and 50% ethanol. To measure platelet activation, washed platelets were stimulated with various concentrations of the peptide in the presence of CD41-APC, P-selectin (PE) and PAC-1 (FITC) for 15 minutes at 37° C. and then fixed with FACS Lysis Buffer. Samples were immediately run on a Cytoflex flow cytometer. In some experiments, platelets were stimulated with peptides and platelet aggregation performed as described above. Platelet calcium flux was induced by RALLLGWVPTR (2 mM; SEQ ID NO: 1), CatG (500 nM), ALLLGWVPTR (2 mM; SEQ ID NO: 2) or tyrodes buffer and monitored as described above.

mouse washed platelets = test: Platelet aggregation of mouse washed platelets; conditions: 1 U/mL human thrombin, 1 μM human CatG or 1 mM RA-11mer
Source text: Animal studies. Mouse platelets were isolated as previously described from C57BL/6 mice (Denorme et al., Blood. 2020; 135(6):429-440). Dog platelets were isolated from whole blood drawn into ACD using a similar isolation procedure as for human platelets. All animal studies were approved by the University of Utah Institutional Animal Care and Use Committee (18-10012).
Platelet and neutrophil isolation. Platelets and neutrophils were isolated as previously described (Yost et al., J Clin Invest. 2016; 126(10):3783-3798). Platelet isolation from dogs, rats and mice was approved by the IACUC. Platelet activation and aggregation were performed as previously described (Manne et al., Blood. 2020; 136(11): 1317-1329).
as §2

PAR4-R68E = biological target: T2, PAR4-R68E (Homo sapiens, UniProt Q96RI0, R68E); test: PAR4 mutant calcium flux assay, HEK293T/17 cells, R68E; conditions: 100 nM vorapaxar
T2 construct: Flag; expressed in transfected cells; host or cells: HEK293T/17 (ATCC CRL-11268)
T2 sequence (Q96RI0 18-385 R68E): T1 sequence (Q96RI0 18-385 S66E) with E49S, R51E
Experimental: as §1

Row | Substance | thrombin-induced calcium flux, S66E mutant compared with WT (PAR4-S66E; thrombin 1.5 U/mL) | platelet aggregation, species comparison: humans (washed platelets) | platelet aggregation, species comparison: mice (mouse washed platelets) | thrombin-induced calcium flux, R68E mutant compared with WT (PAR4-R68E; thrombin 1.5 U/mL) | CatG-induced calcium flux, S66E mutant compared with WT (PAR4-S66E; CatG 2.5 μM) | potency as activator of PAR4, comparison (washed platelets; from platelet aggregation data) | platelet aggregation induced by neutrophil serine protease (washed platelets; washed platelets, 400 nM protease) | CatG-induced calcium flux, R68E mutant compared with WT (PAR4-R68E; CatG 2.5 μM, P<0.001)
1 | thrombin | None of the PAR4 mutants were significantly different than WT | induced platelet aggregation | induced platelet aggregation | None of the PAR4 mutants were significantly different than WT | – | – | – | –
2 | CatG: serine protease cathepsin G released by activated neutrophils | – | induced platelet aggregation | only induced platelet aggregation in humans and dogs | – | slight decrease | much less potent than the thrombin enzyme | only protease to induce platelet aggregation | significantly less calcium flux than WT

— patent US12077607B2, “Functional and therapeutic effects of PAR4 cleavage by cathepsin G” (UNIVERSITY OF UTAH RESEARCH FOUNDATION, priority 2021, dated 2024)
